Values after ≈ are worked out from the molar mass of the structure shown.

The results in this text go back to ChEMBL document CHEMBL3994674, “Toward Resolving the Resveratrol Conundrum: Synthesis and in Vivo Pharmacokinetic Evaluation of BCP-Resveratrol” (ACS Med Chem Lett, 2017).

The nature of data set [1]: Drug level in human hepatocytes treated with resveratrol at 5 uM by LC-MS/MS analysis. The data set is classed as ADME, cell-based, Hepatocyte.
Data set [2] is described as follows: Plasma concentration in Sprague-Dawley rat at 20 mg/kg, po administered as single dose via gavage up to 4 hrs by HPLC-MS analysis. The data set is classed as ADME, organism-based.
Data set [3] in a line: Half life in Sprague-Dawley rat at 20 mg/kg, po administered as single dose via gavage by HPLC-MS analysis. It counts as ADME, organism-based. As to conditions: in vivo.
In data set [4] the test system is MIA PaCa-2. The data set can be described thus: Cytotoxicity against human MIAPaCa2 cells assessed as growth inhibition at 30 uM after 72 hrs by CellTitre-Glo luminescent assay relative to control. It counts as functional. As to conditions: MIA PaCa-2, 72 h, read-out: GI.
Data set [5] can be described thus: Octanol/phosphate buffer partition co-efficient, log D of the compound at 75 uM at pH 7.4 after 2 hrs by LC-Ms/MS based shake-flask method. The data set is classed as physicochemical.
Data set [6] is described as follows: Half life in rat hepatocytes at 5 uM by LC-MS/MS analysis. The data set is classed as ADME, cell-based, Hepatocyte.
The nature of data set [7]: Thermodynamic solubility in pH 7.4 PBS at 10 mg/ml after 1 hr by LC-Ms/MS based shake flask method. The data set is classed as physicochemical. As to conditions: read-out: Therm_solubility.
A short description of data set [8]: Half life in human hepatocytes at 5 uM by LC-MS/MS analysis. It counts as ADME, cell-based, Hepatocyte.
Data set [9] concerns SU-DHL10. The data set can be described thus: Cytotoxicity against human SU-DHL10 cells assessed as growth inhibition at 30 uM after 72 hrs by CellTitre-Glo luminescent assay relative to control. It counts as functional. Particulars: SU-DHL10, 72 h, read-out: GI.
For data set [10], the system named is MDA-MB-231. The data set can be described thus: Cytotoxicity against human MDA-MB-231 cells assessed as growth inhibition at 30 uM after 72 hrs by CellTitre-Glo luminescent assay relative to control. The data set is classed as functional. As to conditions: MDA-MB-231, 72 h, read-out: GI.
The nature of data set [11]: AUC (0 to last) in Sprague-Dawley rat at 20 mg/kg, po administered as single dose via gavage after 4 hrs by HPLC-MS analysis. As to conditions: in vivo. The data set is classed as ADME, organism-based. On the set-up: dose 20 mg/kg, route oral, time 0 - last.
A short description of data set [12]: Apparent intrinsic clearance in human hepatocytes assessed per million cells at 5 uM by LC-MS/MS analysis. The data set is classed as ADME, cell-based, Hepatocyte.
The nature of data set [13]: Cmax in Sprague-Dawley rat at 20 mg/kg, po administered as single dose via gavage after 5 mins by HPLC-MS analysis. It counts as ADME, organism-based. On the set-up: dose 20 mg/kg, route oral. As to conditions: in vivo.
Data set [14] is described as follows: Apparent clearance in Sprague-Dawley rat at 20 mg/kg, po administered as single dose via gavage by HPLC-MS analysis. The data set is classed as ADME, organism-based. As to conditions: in vivo.
Data set [15] in a line: Tmax in Sprague-Dawley rat at 20 mg/kg, po administered as single dose via gavage by HPLC-MS analysis. It counts as ADME, organism-based. As to conditions: in vivo.
Data set [16] in a line: Apparent intrinsic clearance in rat hepatocytes assessed per million cells at 5 uM by LC-MS/MS analysis. The data set is classed as ADME, cell-based, Hepatocyte.
Data set [17] has as its system MDA-MB-231. The data set can be described thus: Cytotoxicity against human MDA-MB-231 cells assessed as growth inhibition after 72 hrs by CellTitre-Glo luminescent assay. Particulars: MDA-MB-231, 72 h. It counts as functional.
Data set [18] has as its system MIA PaCa-2. The data set can be described thus: Cytotoxicity against human MIAPaCa2 cells assessed as growth inhibition after 72 hrs by CellTitre-Glo luminescent assay. The data set is classed as functional. Particulars: MIA PaCa-2, 72 h.
The test system of data set [19] is SU-DHL10. The data set can be described thus: Cytotoxicity against human SU-DHL10 cells assessed as growth inhibition after 72 hrs by CellTitre-Glo luminescent assay. It counts as functional. Particulars: SU-DHL10, 72 h.
Data set [20] is described as follows: Tmax in Wistar rat at 20 mg/kg, po by HPLC-MS analysis. The data set is classed as ADME, organism-based. As to conditions: in vivo.
The nature of data set [21]: Cmax in CD rat at 50 mg/kg/day, po administered via gavage every 24 hrs for 14 consecutive days measured on day 14 post dose by HPLC-MS analysis. It counts as ADME, organism-based. On the set-up: dose 50 mg/kg/day, route oral. As to conditions: in vivo.
Data set [22] in a line: Half life in Wistar rat at 20 mg/kg, po by HPLC-MS analysis. It counts as ADME, organism-based. Particulars: in vivo.
Data set [23] is described as follows: Cmax in Wistar rat at 20 mg/kg, po by HPLC-MS analysis. The data set is classed as ADME, organism-based. The arrangement: dose 20 mg/kg, route oral. As to conditions: in vivo.
The nature of data set [24]: Drug metabolism in human hepatocytes assessed as resveratrol-glucuronide formation at 5 uM by LC-MS/MS analysis. It counts as ADME, cell-based, Hepatocyte.
Data set [25] is described as follows: Drug metabolism in human hepatocytes assessed as resveratrol-sulfate formation at 5 uM by LC-MS/MS analysis. It counts as ADME, cell-based, Hepatocyte.
Data set [26] can be described thus: AUC (0 to last) in Wistar rat at 20 mg/kg, po by HPLC-MS analysis. The data set is classed as ADME, organism-based. As to conditions: in vivo. On the set-up: dose 20 mg/kg, time 0 - last, route oral.
Data set [27] in a line: Apparent clearance in Wistar rat at 20 mg/kg, po by HPLC-MS analysis. The data set is classed as ADME, organism-based. Particulars: in vivo.
The nature of data set [28]: Cmax in CD rat at 50 mg/kg/day, po administered via gavage every 24 hrs for 14 consecutive days measured on day 1 post dose by HPLC-MS analysis. The data set is classed as ADME, organism-based. The arrangement: dose 50 mg/kg/day, route oral. Particulars: in vivo.

Consider `O=S(=O)(O)Oc1ccc(/C=C/c2cc(O)cc(O)c2)cc1`, for which the Drug metabolism result in [1] was “Metabolite_Detected”.
On the same count and under the same terms, with `O=C(O)[C@H]1O[C@@H](Oc2ccc(/C=C/c3cc(O)cc(O)c3)cc2)[C@H](O)[C@@H](O)[C@@H]1O` the entry was “Metabolite_Detected”.
In [2], `Oc1cc(O)cc(/C=C/C23CC(O)(C2)C3)c1` gave a concentration at 4 h of 85 ng/mL. Further, in [3], the half-life was 156 min. In addition, the inhibition of growth at 30 µM in [4] amounted to 30%; in data set [9], 41%; in data set [10] it was 22%. This compound also came in with a pH-dependent lipophilicity (logD) at 2 h, 75 µM in data set [5] of 1.9. Also, the half-life at 5 µM in data set [6] was 24.2 min; in data set [8], 90.4 min. In [7], the solubility thermodynamic at 1 h is 619 µg/mL (≈ 2840 µM). Besides, the AUC(0-t) at 4 h in data set [11] was 587 ng·h/mL. Also, the “CLH(app)” value in data set [12] turned out to be 7.7 µL/min; in data set [16] it was 57.4 µL/min. Further, the Cmax in [13] came to 942 ng/mL. The CL/F in data set [14] is 21.8 L/h/kg. For the same compound, the Tmax in [15] was 4.02 min.
Regarding `COc1ccc(C[C@H](N)C(=O)N[C@H]2[C@@H](O)[C@H](n3cnc4c(N(C)C)ncnc43)O[C@@H]2CO)cc1` [PUROMYCIN], the CC50 came out at 480 nM in data set [17], 200 nM in [18] and 110 nM in data set [19].
`Oc1ccc(/C=C/c2cc(O)cc(O)c2)cc1` [RESVERATROL]: the inhibition of growth at 30 µM in data set [4] worked out at 30%; in [9], 46%; in data set [10], 20%. The log distribution coefficient (logD) at 2 h, 75 µM in data set [5] is 2.9. Further, the values for the half-life at 5 µM in data set [6] and in [8] were less than 7.5 min and 23.2 min, respectively. The solubility thermodynamic at 1 h in data set [7] turned out to be 19 µg/mL (≈ 83.2 µM). The time of peak concentration (Tmax) in data set [20] worked out at 4.98 min. In addition, the maximum concentration (Cmax) came out at 176 ng/mL in data set [21], 273 ng/mL in [23] and 76.7 ng/mL in [28]. Moreover, in data set [22], the half-life was 11.4 min. For the same compound, the “CLH(app)” value is 29.9 µL/min in [12] and greater than 184.8 µL/min in data set [16]. For the same compound, the Drug metabolism result in [24] and in data set [25] was “Metabolite_Detected” in each case. This compound registered an AUC(0-t) in [26] of 47.5 ng·h/mL. The CL/F in data set [27] was 409 L/h/kg.
